Results published in article PMC11571215, “Optimization of Antiproliferative Properties of Triimine Copper(II) Complexes” (Journal of Medicinal Chemistry, 2024).

Tests used:
[1] = tested on: normal human primary dermal fibroblasts; assay: MTS cell viability assay, normal fibroblasts; type: cell-based; details: 48 h of exposure
Method: The antiproliferative effect of the Cu(II) complexes in tumor and healthy cell lines was assessed through the MTS assay, a colorimetric method that is widely used to evaluate cellular viability, specifically mitochondrial viability.[53],[54] Cellular viability was determined after 48 h exposure to a concentration range (0.1–50 μM) of Cu(II) complexes in three tumor cell lines. […] Additionally, the viability of healthy primary dermal fibroblasts was performed as a comparison of the complexes’ antiproliferative effects in normal cells.
Cellular viability assays were performed using HCT116, HCT116-DoxR, and A2780 cancer cell lines as well as normal human primary fibroblasts. Cells were seeded at a density of 0.75 × 10^5 cells/mL in 96-well plates and incubated at 37 °C with 5% (v/v) CO2 for 24 h. After this incubation period, the copper complexes were accurately weighed and immediately dissolved in 100% (v/v) dimethyl sulfoxide (DMSO). Subsequently, the complexes were diluted to the final concentration using a cell culture medium. The culture medium in each well was replaced with fresh medium containing varying concentrations of the complexes (ranging from 0.01 to 50 μM). Negative controls contained culture medium with 0.1% (v/v) DMSO, and positive controls contained 0.4 μM Dox.
After an additional 48 h of incubation under the same conditions, cellular viability was assessed using the CellTiter 96 Aqueous One Solution Cell Proliferation Assay kit (Promega, Madison, USA). […] The absorbance of formazan, measured at 490 nm in a microplate reader (Tecan Infinite M200, Tecan, Männedorf, Switzerland), is directly proportional to the number of viable cells.[104]
The cell viability versus concentration graphics were analyzed using Prism 8 software (GraphPad) to determine the half-maximal inhibitory concentration (IC50) of each complex for the respective cell line. Additionally, the selective index (SI) for each complex was calculated by dividing the IC50 of human fibroblasts by the IC50 values of the tested cancer cell lines.

[2] = tested on: BAX and BCL-2 proteins in HCT116-DoxR cells; assay: BAX and BCL-2 protein expression by Western Blot; type: cell-based, human; details: 48 h at IC50; normalized to 0.1% DMSO control and β-actin
Method: 0.1% DMSO was used as a negative control and β-actin protein was used for the normalization of the total protein quantity.
HCT116-DoxR cells were seeded in a 25 cm^2 T-flask at a density of 2 × 10^6 cells/T-flask. […] Cells were incubated for 48 h and later were washed and collected using cold PBS 1× and a cell scraper. […]
After the storage period, the samples were submitted 5 ultrasound (Elma sonicator, D-78224 Singen/Htw, Germany) cycles on ice (2 min and 30 s on ultrasound followed by 1 min period on ice) and then centrifuged at 10,000 × g for 5 min. The supernatant was transferred to a 1.5 mL Eppendorf tube, and the total protein extracted was quantified with Pierce 660 nm Protein Assay kit (ThermoFisher Scientific, MA, USA).
In the SDS-PAGE analysis of BAX and BCL-2 proteins, 20 μg of protein was applied into a 10% polyacrylamide gel as well as NZYColour protein marker II and transferred to a 0.45 μm polyvinylidene fluoride (PVDF) membrane (GE Healthcare Life Sciences, Germany). […] Protein quantification was done by densitometry with ImageJ software.

[3] = tested on: chicken embryo chorioallantoic membrane; assay: Ex-ovo CAM assay: in vivo toxicity and angiogenic potential; details: IC50 concentrations; for angiogenic potential (tertiary veins): 24 h, normalized to DMSO; for in vivo toxicity (embryo death): chicken embryo
Text: The ex-ovo Chorioallantoic Membrane (CAM) assay has become a preclinical model of choice for assessing the cytotoxicity of Cu(II) complexes and in vivo angiogenesis.[38] The CAM is an extraembryonic membrane formed by mesodermal layers, highly vascularized despite being compromised, making it ideal for studying angiogenesis and antiangiogenesis in response to biomolecules and drugs.[97] […] In these assays, highly vascularized regions surrounded by O-rings on the chorioallantoic membrane of chicken embryos were studied. […] Eight embryos were used as biological replicates. Images were taken immediately after exposure to the complexes and control (0 h) and 24 h later. The values were normalized to the number of tertiary veins after exposure to the DMSO control and are represented in Figures 19 and S25.
To assess the angiogenic potential of the copper complexes, an ex-ovo CAM (chick chorioallantoic membrane) in vivo model using chicken eggs was performed. Fertilized eggs were opened, and the embryos and blood vessels were stabilized for 24 h in an incubator at 37 °C in perforated individual weighing boxes. After incubation, 4 silicone O-rings were placed on areas with a high number of blood vessels. […] The area limited by each O-ring was photographed immediately after the addition of the complexes and after 24 and 48 h of incubation at 37 °C. The images were captured with a digital USB microscope camera (Opti-Tekscope OT-V1). Image analysis was performed using ImageJ software.

| SMILES | IC50 [1] | BAX/BCL-2 ratio higher than control [2] | angiogenic potential (tertiary veins) [3] | in vivo toxicity (embryo death) [3] |
| --- | --- | --- | --- | --- |
| [Cl][Cu-3]12([Cl])[n+]3ccccc3-c3cc(-c4cccc5ccccc45)cc([n+]31)-c1cccc[n+]12 [Cu1a] | 9.26 ± 0.9 µM | 1.80 × | did not show significant pro- or antiangiogenic properties | do not show in vivo toxicity in a chicken embryo |
| [Cl][Cu-3]12([Cl])[n+]3ccccc3-c3cc(-c4ccc5ccccc5c4)cc([n+]31)-c1cccc[n+]12 [Cu1b] | 13.3 ± 1 µM | 1.65 × | did not show significant pro- or antiangiogenic properties | do not show in vivo toxicity in a chicken embryo |
